According to US10213433B2 (AbbVie Inc., priority 2010, dated 2019):

Molecular target: Bcl-2 protein (Homo sapiens (Human), UniProt P10415)
Assay: Bcl-2 binding TR-FRET (Time-Resolved Fluorescence-Resonance-Energy-Transfer) assay
Conditions: inhibition constant for binding to Bcl-2 protein
From the text: The smaller the Ki value, the greater is the binding affinity.

Sequence of Bcl-2 protein (P10415 whole entry): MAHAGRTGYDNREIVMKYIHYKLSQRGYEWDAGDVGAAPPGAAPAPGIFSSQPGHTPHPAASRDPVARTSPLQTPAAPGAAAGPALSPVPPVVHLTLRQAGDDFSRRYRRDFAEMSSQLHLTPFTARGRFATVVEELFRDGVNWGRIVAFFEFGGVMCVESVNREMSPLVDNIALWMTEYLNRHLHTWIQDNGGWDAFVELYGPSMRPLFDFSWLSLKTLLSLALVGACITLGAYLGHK

`CC1(C)CCC(CN2CCN(c3ccc(C(=O)NS(=O)(=O)c4ccc(OCC5(F)CCN(C6COC6)CC5)c([N+](=O)[O-])c4)c(Oc4cnc5[nH]ccc5c4)c3)CC2)=C(c2ccc(Cl)cc2)C1` [Compound 167, 4-(4-{[2-(4-chlorophenyl)-4,4-dimethylcyclohex-1-en-1-yl]methyl}piperazin-1-yl)-N-({4-[(4-fluoro-1-oxetan-3-ylpiperidin-4-yl)methoxy]-3-nitrophenyl}sulfonyl)-2-(1H-pyrrolo[2,3-b]pyridin-5-yloxy)benzamide] was tested. Which Ki did it give?
The Ki was < 0.01 nM.

For `CN(C)CC(=O)N1CCO[C@H](CNc2ccc(S(=O)(=O)NC(=O)c3ccc(N4CCN(CC5=C(c6ccc(Cl)cc6)CC(C)(C)CC5)CC4)cc3Oc3cnc4[nH]ccc4c3)cc2[N+](=O)[O-])C1` [Compound 258, 4-(4-{[2-(4-chlorophenyl)-4,4-dimethylcyclohex-1-en-1-yl]methyl}piperazin-1-yl)-N-{[4-({[(2R)-4-(N,N-dimethylglycyl)morpholin-2-yl]methyl}amino)-3-nitrophenyl]sulfonyl}-2-(1H-pyrrolo[2,3-b]pyridin-5-yloxy)benzamide], which Ki is on record?
Its Ki is < 0.01 nM.

With `CC1(C)CCC(CN2CCN(c3ccc(C(=O)NS(=O)(=O)c4ccc(NC5CCC(N(CCC#N)C6CC6)CC5)c([N+](=O)[O-])c4)c(Oc4cnc5[nH]ccc5c4)c3)CC2)=C(c2ccc(Cl)cc2)C1` (stereo not drawn) [Compound 340, 4-(4-{[2-(4-chlorophenyl)-4,4-dimethylcyclohex-1-en-1-yl]methyl}piperazin-1-yl)-N-{[4-({4-[(2-cyanoethyl)(cyclopropyl)amino]cyclohexyl}amino)-3-nitrophenyl]sulfonyl}-2-(1H-pyrrolo[2,3-b]pyridin-5-yloxy)benzamide] as the molecule, how does the Ki read?
Its Ki is < 0.01 nM.

For `CC1(C)CCC(CN2CCN(c3ccc(C(=O)NS(=O)(=O)c4ccc(NCCCNC5CC5)c([N+](=O)[O-])c4)c(Oc4cnc5[nH]ccc5c4)c3)CC2)=C(c2ccc(Cl)cc2)C1` [Compound 291, 4-(4-{[2-(4-chlorophenyl)-4,4-dimethylcyclohex-1-en-1-yl]methyl}piperazin-1-yl)-N-[(4-{[3-(cyclopropylamino)propyl]amino}-3-nitrophenyl)sulfonyl]-2-(1H-pyrrolo[2,3-b]pyridin-5-yloxy)benzamide], which Ki is on record?
Its Ki is < 0.01 nM.

For `CC1(C)CCC(CN2CCN(c3ccc(C(=O)NS(=O)(=O)c4ccc(N[C@H]5CC[C@@H](N6CCOCC6)C5)c([N+](=O)[O-])c4)c(Oc4cnc5[nH]ccc5c4)c3)CC2)=C(c2ccc(Cl)cc2)C1` [Compound 111, 4-(4-{[2-(4-chlorophenyl)-4,4-dimethylcyclohex-1-en-1-yl]methyl}piperazin-1-yl)-N-[(4-{[(1S,3R)-3-morpholin-4-ylcyclopentyl]amino}-3-nitrophenyl)sulfonyl]-2-(1H-pyrrolo[2,3-b]pyridin-5-yloxy)benzamide], which Ki is on record?
The Ki was < 0.01 nM.

For `CC(C)N1CCC2(CCC(c3ccc(Cl)cc3)=C(CN3CCN(c4ccc(C(=O)NS(=O)(=O)c5ccc(NCC6CCOCC6)c([N+](=O)[O-])c5)c(Oc5cnc6[nH]ccc6c5)c4)CC3)C2)CC1` [Compound 266, 4-(4-{[9-(4-chlorophenyl)-3-isopropyl-3-azaspiro[5.5]undec-8-en-8-yl]methyl}piperazin-1-yl)-N-({3-nitro-4-[(tetrahydro-2H-pyran-4-ylmethyl)amino]phenyl}sulfonyl)-2-(1H-pyrrolo[2,3-b]pyridin-5-yloxy)benzamide], which Ki is on record?
The Ki was < 0.01 nM.

`CC1(C)CCC(CN2CCN(c3ccc(C(=O)NS(=O)(=O)c4ccc(N[C@@H]5CCN(CC#N)C5)c([N+](=O)[O-])c4)c(Oc4cnc5[nH]ccc5c4)c3)CC2)=C(c2ccc(Cl)cc2)C1` [Compound 262, 4-(4-{[2-(4-chlorophenyl)-4,4-dimethylcyclohex-1-en-1-yl]methyl}piperazin-1-yl)-N-[(4-{[(3R)-1-(cyanomethyl)pyrrolidin-3-yl]amino}-3-nitrophenyl)sulfonyl]-2-(1H-pyrrolo[2,3-b]pyridin-5-yloxy)benzamide] was tested. Which Ki did it give?
The Ki was < 0.01 nM.

For `CC1(C)CCC(CN2CCN(c3ccc(C(=O)NS(=O)(=O)c4ccc(N[C@@H]5CCN(C6CCOC(C)(C)C6)C5)c([N+](=O)[O-])c4)c(Oc4cnc5[nH]ccc5c4)c3)CC2)=C(c2ccc(Cl)cc2)C1` (stereo partly drawn) [Compound 131, 4-(4-{[2-(4-chlorophenyl)-4,4-dimethylcyclohex-1-en-1-yl]methyl}piperazin-1-yl)-N-[(4-{[(3R)-1-(2,2-dimethyltetrahydro-2H-pyran-4-yl)pyrrolidin-3-yl]amino}-3-nitrophenyl)sulfonyl]-2-(1H-pyrrolo[2,3-b]pyridin-5-yloxy)benzamide], which Ki is on record?
Its Ki is < 0.01 nM.

Which Ki does the source give for `CC(=O)N1CCC(CNc2ccc(S(=O)(=O)NC(=O)c3ccc(N4CCN(CC5=C(c6ccc(Cl)cc6)CC(C)(C)CC5)CC4)cc3Oc3cnc4[nH]ccc4c3)cc2[N+](=O)[O-])C1` (stereo not drawn) [Compound 153, N-[(4-{[(1-acetylpyrrolidin-3-yl)methyl]amino}-3-nitrophenyl)sulfonyl]-4-(4-{[2-(4-chlorophenyl)-4,4-dimethylcyclohex-1-en-1-yl]methyl}piperazin-1-yl)-2-(1H-pyrrolo[2,3-b]pyridin-5-yloxy)benzamide] here?
The Ki was < 0.01 nM.

For `COCCN1CCOC(CNc2ccc(S(=O)(=O)NC(=O)c3ccc(N4CCN(CC5=C(c6ccc(Cl)cc6)CC(C)(C)CC5)CC4)cc3Oc3cnc4[nH]ccc4c3)cc2[N+](=O)[O-])C1` (stereo not drawn) [Compound 135, 4-(4-{[2-(4-chlorophenyl)-4,4-dimethylcyclohex-1-en-1-yl]methyl}piperazin-1-yl)-N-{[4-({[4-(2-methoxyethyl)morpholin-2-yl]methyl}amino)-3-nitrophenyl]sulfonyl}-2-(1H-pyrrolo[2,3-b]pyridin-5-yloxy)benzamide], which Ki is on record?
The Ki was < 0.01 nM.

With `CC1(C)CCC(CN2CCN(c3ccc(C(=O)NS(=O)(=O)c4ccc(OCC5CCC6(CC5)COC6)c([N+](=O)[O-])c4)c(Oc4cnc5[nH]ccc5c4)c3)CC2)=C(c2ccc(Cl)cc2)C1` [Compound 351, 4-(4-{[2-(4-chlorophenyl)-4,4-dimethylcyclohex-1-en-1-yl]methyl}piperazin-1-yl)-N-{[3-nitro-4-(2-oxaspiro[3.5]non-7-ylmethoxy)phenyl]sulfonyl}-2-(1H-pyrrolo[2,3-b]pyridin-5-yloxy)benzamide] as the molecule, how does the Ki read?
Its Ki is < 0.01 nM.

For `CC1(C)CCC(CN2CCN(c3ccc(C(=O)NS(=O)(=O)c4ccc(NCC5CN(CCF)CCO5)c([N+](=O)[O-])c4)c(Oc4cnc5[nH]ccc5c4)c3)CC2)=C(c2ccc(Cl)cc2)C1` (stereo not drawn) [Compound 165, 4-(4-{[2-(4-chlorophenyl)-4,4-dimethylcyclohex-1-en-1-yl]methyl}piperazin-1-yl)-N-{[4-({[4-(2-fluoroethyl)morpholin-2-yl]methyl}amino)-3-nitrophenyl]sulfonyl}-2-(1H-pyrrolo[2,3-b]pyridin-5-yloxy)benzamide], which Ki is on record?
Its Ki is < 0.01 nM.

Which Ki does the source give for `CC1(C)CCC(CN2CCN(c3ccc(C(=O)NS(=O)(=O)c4ccc(NC[C@H]5CN(C6CC6)CCO5)c([N+](=O)[O-])c4)c(Oc4cnc5[nH]ccc5c4)c3)CC2)=C(c2ccc(Cl)cc2)C1` [Compound 327, 4-(4-{[2-(4-chlorophenyl)-4,4-dimethylcyclohex-1-en-1-yl]methyl}piperazin-1-yl)-N-{[4-({[(2S)-4-cyclopropylmorpholin-2-yl]methyl}amino)-3-nitrophenyl]sulfonyl}-2-(1H-pyrrolo[2,3-b]pyridin-5-yloxy)benzamide] here?
Its Ki is < 0.01 nM.

`CC1(C)CCC(CN2CCN(c3ccc(C(=O)NS(=O)(=O)c4ccc(OCC5COCCN5)c([N+](=O)[O-])c4)c(Oc4cnc5[nH]ccc5c4)c3)CC2)=C(c2ccc(Cl)cc2)C1` (stereo not drawn) [Compound 78, 4-(4-{[2-(4-chlorophenyl)-4,4-dimethylcyclohex-1-en-1-yl]methyl}piperazin-1-yl)-N-{[4-(morpholin-3-ylmethoxy)-3-nitrophenyl]sulfonyl}-2-(1H-pyrrolo[2,3-b]pyridin-5-yloxy)benzamide] was tested. Which Ki did it give?
The Ki was < 0.01 nM.

With `CC1(C)CCC(CN2CCN(c3ccc(C(=O)NS(=O)(=O)c4ccc(NCC5CN(CC(=O)O)CCO5)c([N+](=O)[O-])c4)c(Oc4cnc5[nH]ccc5c4)c3)CC2)=C(c2ccc(Cl)cc2)C1` (stereo not drawn) [Compound 216, (2-{[(4-{[4-(4-{[2-(4-chlorophenyl)-4,4-dimethylcyclohex-1-en-1-yl]methyl}piperazin-1-yl)-2-(1H-pyrrolo[2,3-b]pyridin-5-yloxy)benzoyl]sulfamoyl}-2-nitrophenyl)amino]methyl}morpholin-4-yl)acetic acid] as the molecule, how does the Ki read?
Its Ki is < 0.01 nM.

With `CC1(C)CCC(CN2CCN(c3ccc(C(=O)NS(=O)(=O)c4ccc(NC(=O)N5CCOCC5)c([N+](=O)[O-])c4)c(Oc4cnc5[nH]ccc5c4)c3)CC2)=C(c2ccc(Cl)cc2)C1` [Compound 373, N-(4-{[4-(4-{[2-(4-chlorophenyl)-4,4-dimethylcyclohex-1-en-1-yl]methyl}piperazin-1-yl)-2-(1H-pyrrolo[2,3-b]pyridin-5-yloxy)benzoyl]sulfamoyl}-2-nitrophenyl)morpholine-4-carboxamide] as the molecule, how does the Ki read?
The Ki was < 0.001 nM.

`COCC1(C)CCC(c2ccc(Cl)cc2)=C(CN2CCN(c3ccc(C(=O)NS(=O)(=O)c4ccc(NCC5CCOCC5)c([N+](=O)[O-])c4)c(Oc4cnc5[nH]ccc5c4)c3)CC2)C1` (stereo not drawn) [Compound 360, 4-(4-{[2-(4-chlorophenyl)-5-(methoxymethyl)-5-methylcyclohex-1-en-1-yl]methyl}piperazin-1-yl)-N-({3-nitro-4-[(tetrahydro-2H-pyran-4-ylmethyl)amino]phenyl}sulfonyl)-2-(1H-pyrrolo[2,3-b]pyridin-5-yloxy)benzamide] was tested. Which Ki did it give?
Its Ki is < 0.01 nM.

How did the Ki turn out when `COC(=O)N1CCOC(CNc2ccc(S(=O)(=O)NC(=O)c3ccc(N4CCN(CC5=C(c6ccc(Cl)cc6)CC(C)(C)CC5)CC4)cc3Oc3cnc4[nH]ccc4c3)cc2[N+](=O)[O-])C1` (stereo not drawn) [Compound 317, methyl 2-{[(4-{[4-(4-{[2-(4-chlorophenyl)-4,4-dimethylcyclohex-1-en-1-yl]methyl}piperazin-1-yl)-2-(1H-pyrrolo[2,3-b]pyridin-5-yloxy)benzoyl]sulfamoyl}-2-nitrophenyl)amino]methyl}morpholine-4-carboxylate] was run?
Its Ki is < 0.01 nM.
